Source: ChEMBL document CHEMBL3217405, “Methanocarba ring as a ribose modification in ligands of G protein-coupled purine and pyrimidine receptors: synthetic approaches” (Medchemcomm, 2013)

What was measured:
Adenosine receptor A3 [1] = target: T1, Adenosine receptor A3 (Homo sapiens, UniProt P0DMS8); test: Agonist activity at adenosine A3 receptor (unknown origin) assessed as stimulation of [35S]GTPgammaS binding; format: functional
T1 sequence (P0DMS8 whole entry): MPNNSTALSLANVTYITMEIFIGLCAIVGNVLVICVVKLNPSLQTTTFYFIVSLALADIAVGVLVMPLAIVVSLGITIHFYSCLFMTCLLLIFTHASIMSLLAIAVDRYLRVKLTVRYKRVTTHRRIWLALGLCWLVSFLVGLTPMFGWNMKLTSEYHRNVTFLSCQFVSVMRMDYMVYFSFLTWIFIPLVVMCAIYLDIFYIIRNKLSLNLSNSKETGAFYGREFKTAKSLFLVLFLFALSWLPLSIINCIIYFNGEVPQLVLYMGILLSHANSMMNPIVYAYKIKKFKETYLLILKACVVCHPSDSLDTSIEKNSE

Adenosine receptor A3 [2] = target: T1, Adenosine receptor A3; test: Binding affinity to adenosine A3 receptor (unknown origin)
[3] = target: Adenosine receptors; A1 & A3 (Homo sapiens) (UniProt P30542+P0DMS8); test: Selectivity ratio of adenosine A3 receptor (unknown origin) over adenosine A1 receptor (unknown origin)

SMILES	EC50 (Adenosine receptor A3 [1]) [µM]	Selectivity ratio [3]	also measured
OC[C@@]12C[C@@H]1[C@@H](n1cnc3c(NCc4cccc(I)c4)ncnc31)[C@H](O)[C@@H]2O	< 0.001	–	–
O=P(O)(OC[C@@]12C[C@@H]1[C@@H](n1cnc3c(O)ncnc31)[C@H](O)[C@@H]2O)OP(=O)(O)OC[C@@]12C[C@@H]1[C@@H](n1cnc3c(O)ncnc31)[C@H](O)[C@@H]2O	–	–	Ki (Adenosine receptor A3 [2]): 22 µM
CNc1ncnc2c1ncn2[C@H]1[C@H](O)[C@H](O)[C@]2(CO)C[C@H]12	–	12	–
CNc1nc(Cl)nc2c1ncn2[C@H]1[C@H](O)[C@H](O)[C@]2(CO)C[C@H]12	–	39	–
CNC(=O)[C@@]12C[C@@H]1[C@@H](n1cnc3c(NC)nc(Cl)nc31)[C@H](O)[C@@H]2O	–	130	–
OC[C@@]12C[C@@H]1[C@@H](n1cnc3c(NCc4cccc(I)c4)nc(Cl)nc31)[C@H](O)[C@@H]2O	< 0.001	–	–
